Test results published in PubChem BioAssay (NCI).
Several values for one entry are separate records, joined by “and”; a condition that tells them apart may be missing. Equal entries are not always repeated.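 All cell lines were grown in 96-well plates and treated with compound for 48 hours. Abbreviation: GI50, concentration required for 50% inhibition of growth. TGI: concentration producing complete growth inhibition.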 Where a SMILES comes first, the peptide text is derived from it. [ ]: non-standard residue; d: D form. NMeY = CN[C@@H](Cc1ccc(O)cc1)C(=O)O; dNMeF = CN[C@H](Cc1ccccc1)C(=O)O; Sar = CNCC(=O)O

Key:
Assay in all cases: NCI-60 cell line screen, 48 h
HCT-116 colon = system: HCT-116 colon
HL-60(TB) leukemia = system: HL-60(TB) leukemia
LOX IMVI melanoma = system: LOX IMVI melanoma
NCI-H23 lung = system: NCI-H23 lung
UACC-62 melanoma = system: UACC-62 melanoma
SNB-75 CNS = system: SNB-75 CNS
NCI-H460 lung = system: NCI-H460 lung
HCC-2998 colon = system: HCC-2998 colon
MDA-MB-435 = system: MDA-MB-435
SF-295 CNS = system: SF-295 CNS

Compound	GI50 (HCT-116 colon)	TGI (HCT-116 colon)	GI50 (HL-60(TB) leukemia)	TGI (HL-60(TB) leukemia)	GI50 (LOX IMVI melanoma)	TGI (LOX IMVI melanoma)	GI50 (NCI-H23 lung)	TGI (NCI-H23 lung)	GI50 (UACC-62 melanoma)	TGI (UACC-62 melanoma)	GI50 (SNB-75 CNS)	TGI (SNB-75 CNS)	GI50 (NCI-H460 lung)	TGI (NCI-H460 lung)	GI50 (HCC-2998 colon)	TGI (HCC-2998 colon)	GI50 (MDA-MB-435)	TGI (MDA-MB-435)	GI50 (SF-295 CNS)	TGI (SF-295 CNS)
CC[C@H](C)[C@@H]1NC(=O)[C@H](Cc2ccc(O)cc2)N(C)C(=O)[C@H](Cc2ccccc2)NC(=O)CN(C)C(=O)[C@@H]2CCCN2C(=O)[C@@H](Cc2ccccc2)N(C)C(=O)[C@H](CC(C)C)NC1=O (cyclo(F[NMeY]IL[dNMeF]P[Sar]))	0.155 µM	10.5 µM	0.605 µM	3.3 µM	0.197 µM	1.89 µM	0.197 µM	5.95 µM	0.367 µM	2.75 µM	0.206 µM	2.78 µM	0.184 µM	1.94 µM	0.39 µM	5.01 µM	0.205 µM	1.7 µM	0.428 µM	3.5 µM
Nc1c(C(=O)c2cccc(C#CCN3CCOCC3)c2)cnn1-c1ccc(F)cc1	> 22.8 µM	> 25 µM	16.4 µM	> 25 µM	> 25 µM	> 25 µM	> 25 µM	> 25 µM	19.6 µM	> 25 µM	> 6.15 µM	> 25 µM	> 16.5 µM	> 25 µM	> 25 µM	> 25 µM	4.41 µM	> 17.4 µM	> 6.3 µM	> 25 µM
O=C(NC(=S)NNC(=S)NNc1ccccc1)c1ccccc1	4.05 µM	> 100 µM	3.27 µM	8.52 µM	7.22 µM	> 100 µM	–	–	–	–	3.09 µM	> 100 µM	3.72 µM	> 100 µM	8.53 µM	> 100 µM	3.47 µM	> 100 µM	4.19 µM	> 100 µM
COc1ccc2[nH]c(=O)c(/C=C/C(=O)/C=C/c3ccc(O)c(OC)c3)cc2c1	0.164 µM	0.338 µM	2.24 µM	> 100 µM	1.54 µM	3.18 µM	2.04 µM	4.88 µM	1.52 µM	3.19 µM	2.96 µM	14.4 µM	2.04 µM	5 µM	1.97 µM	3.64 µM	0.301 µM	1.3 µM	2.36 µM	7.36 µM
COc1cccc(-n2ncc3c(N/N=C/c4ccc(S(C)(=O)=O)cc4)ncnc32)c1	8.46 µM	> 25 µM	> 25 µM	> 25 µM	2.34 µM	> 25 µM	11.9 µM	> 25 µM	3.47 µM	> 16.9 µM	1.89 µM	4.32 µM	6.56 µM	> 25 µM	12.4 µM	> 25 µM	3.55 µM	> 25 µM	12.3 µM	> 25 µM
Nc1c(C(=O)c2cccc(CCC3(O)CCCC3)c2)cnn1-c1ccc(F)cc1	18.5 µM	> 25 µM	16.2 µM	> 25 µM	> 25 µM	> 25 µM	14.6 µM	> 25 µM	12.5 µM	> 25 µM	8.47 µM	> 25 µM	20.5 µM	> 25 µM	> 25 µM	> 25 µM	8.98 µM	> 25 µM	9.4 µM	> 25 µM
CC[N+]1(C)CCC(O)(c2ccccc2)C(C(=O)c2ccccc2)C1 (stereo unspecified)	–	34.7 µM	–	15.9 µM	–	36.8 µM	–	40.8 µM	–	38.6 µM	–	24.3 µM	–	43 µM	–	49.8 µM	–	34.2 µM	–	35.9 µM
CCCCCCCCCCCC[n+]1ccccc1	1.92 µM	10.7 µM	0.422 µM	1.99 µM	1.17 µM	2.72 µM	0.488 µM	5.67 µM	1.17 µM	2.81 µM	1.16 µM	4.05 µM	1.76 µM	4.58 µM	1.37 µM	5.29 µM	1.18 µM	3.22 µM	1.39 µM	4.1 µM
C/C(=N\NC(=O)c1ccccc1O)c1cccc(/C(C)=N/NC(=O)c2ccccc2O)n1	5.85 µM and 0.619 µM	66.9 µM and 28.4 µM	0.784 µM and 0.504 µM	–	0.505 µM	> 100 µM	16 µM and 1.73 µM	63.8 µM and > 100 µM	0.614 µM	20.6 µM and > 100 µM	23 µM	33.5 µM and > 61.9 µM	0.535 µM	74.1 µM and > 100 µM	0.489 µM	11.5 µM and > 58.9 µM	0.767 µM	> 100 µM	0.33 µM	59.1 µM and > 36.1 µM
Nc1ncnc2c(C3OC(CO)C(O)C3O)[nH]nc12 (stereo unspecified)	–	3.16 µM	0.0142 µM	0.111 µM	0.147 µM	2.22 µM and 0.4 µM	0.659 µM	10.5 µM and 16.4 µM	–	10.7 µM and 10.2 µM	–	5.29 µM and 1.25 µM	0.0434 µM	2.12 µM and 1.44 µM	0.0575 µM	3.11 µM and 1.31 µM	0.356 µM	8.42 µM	0.231 µM	1.1 µM and 10.1 µM
Nc1nc(N)c2c(ccc3nccc32)[nH]1	0.934 µM	> 71.2 µM	2.53 µM	> 78.8 µM	0.839 µM	16.6 µM	6.46 µM	> 100 µM	2.67 µM	17.6 µM	17.2 µM	89.4 µM	0.439 µM	14.5 µM	9.79 µM	> 91 µM	0.688 µM	35.4 µM	1.95 µM	> 91.3 µM
C[C@H]1[C@H](C)CC[C@]2(C(=O)O)CC[C@]3(C)C(=CC[C@@H]4[C@@]5(C)CC[C@H](OC(=O)/C=C/c6ccc(O)cc6)C(C)(C)[C@@H]5CC[C@]43C)[C@H]12	3.09 µM	7.93 µM	6.53 µM	34.3 µM	4.73 µM	16.6 µM	3.11 µM	8.36 µM	15.1 µM	31.6 µM	4.82 µM	28.9 µM	7.08 µM	> 65.9 µM	7.37 µM	21.9 µM	6.38 µM	19.7 µM	2.27 µM	7.04 µM
COc1cc(Cn2ccc3c2-c2oncc2CC3)cc(OC)c1	3.49 µM	26.6 µM	2.22 µM	8.94 µM	4.83 µM	> 100 µM	3.89 µM	52.9 µM	3.68 µM	> 100 µM	1.9 µM	7.48 µM	3.11 µM	13.3 µM	7.13 µM	90.1 µM	0.369 µM	4.03 µM	3.05 µM	28.8 µM
CCN(CC)CCCOc1cc(O)c2c(=O)cc(-c3ccccc3)oc2c1	–	–	3.98 µM	15.3 µM	3.75 µM	14.1 µM	11.4 µM	23.4 µM	3.89 µM	12.7 µM	8.36 µM	22.3 µM	4.2 µM	14.6 µM	10.1 µM	24.4 µM	5.5 µM	24.8 µM	11.9 µM	28.1 µM
COc1cc2nc(N3CCCC3)nc(Nc3ccccc3)c2cc1OC	0.58 µM	2.44 µM	0.635 µM	2.42 µM	0.201 µM	0.479 µM	1.93 µM	3.76 µM	1.73 µM	3.23 µM	1.39 µM	2.7 µM	1.86 µM	3.59 µM	1.9 µM	3.65 µM	1.66 µM	3.09 µM	1.8 µM	3.27 µM
CN(C)C(=O)c1cc2cnc(Nc3ccc(-c4csc5c(=O)cc(N6CCNCC6)oc45)cc3)nc2n1C1CCCC1	0.318 µM	1.4 µM	0.271 µM	1.72 µM	0.85 µM	2.22 µM	0.995 µM	2.93 µM	1.44 µM	8.69 µM	0.313 µM	2.03 µM	0.814 µM	2.35 µM	0.551 µM	2.03 µM	0.94 µM	6.61 µM	2.1 µM	10.7 µM
O=C1c2ccccc2-c2n[nH]c3cccc1c23	6.15 µM	> 100 µM	9.8 µM	> 100 µM	6.04 µM	> 100 µM and 34.2 µM	–	58.1 µM and > 100 µM	19.7 µM	86.6 µM and > 100 µM	–	97.6 µM and > 100 µM	8.6 µM	> 100 µM	19.3 µM	54.6 µM and > 100 µM	15.8 µM	> 100 µM	–	86.3 µM and > 100 µM
Cc1cc2c3ccccc3ccc2[n+]2ccccc12	7.29 µM	44.4 µM	14.3 µM	46.3 µM	21.5 µM	91.6 µM	2.57 µM	19.3 µM	6 µM	20.4 µM	4.66 µM	> 33.7 µM	8.81 µM	28.1 µM	4.71 µM	19.7 µM	8.56 µM	26.6 µM	2.29 µM	12.7 µM
O=Cc1ccc(Oc2c3ccccc3nc3occc23)cc1	15.3 µM	28.7 µM	22.9 µM	56.9 µM	–	–	15 µM	36 µM	13.1 µM	30.4 µM	19.3 µM	85.2 µM	20.2 µM	48.2 µM	–	–	6.49 µM	24.7 µM	14.4 µM	36.8 µM
CC1(O)CC2(O)C=CC3=C(C(=O)c4cccc(O)c4C3=O)C2(O)C(=O)C1O (stereo unspecified)	–	2.05 µM	–	2.17 µM	–	3.37 µM	–	10.7 µM	–	6.88 µM	–	19.1 µM	–	34.3 µM	–	7.54 µM	–	3.32 µM	–	26.7 µM
OCCNc1ncnc2c1ncn2C1OC(CO)C(O)C1O (stereo unspecified)	–	> 100 µM	–	> 100 µM	–	> 100 µM	–	> 100 µM	–	> 100 µM	–	> 100 µM	–	> 100 µM	–	> 100 µM	–	> 100 µM	–	> 100 µM
CCN(C(=O)CCl)C(C)(C)C(SSSC(c1ccc(Cl)cc1)C(C)(C)N(CC)C(=O)CCl)c1ccc(Cl)cc1 (stereo unspecified)	4.47 µM	18.5 µM	2.1 µM	7.92 µM	3.1 µM	10.7 µM	–	–	–	–	13.3 µM	29.5 µM	7.34 µM	20.9 µM	11.1 µM	26.6 µM	2.14 µM	5.49 µM	2.99 µM	8.93 µM
Cc1ccc2c(Nc3cccc(Cl)c3F)ncc(NC(=O)c3csc4c(N)ncnc34)c2c1	0.0961 µM	> 100 µM	0.0656 µM	> 100 µM	0.0743 µM	> 100 µM	0.522 µM	> 100 µM	–	–	> 100 µM	> 100 µM	> 100 µM	> 100 µM	0.281 µM	> 100 µM	0.326 µM	> 100 µM	> 100 µM	> 100 µM
COc1ccc2c(c1)sc1nc(-c3ccccc3)c(-c3ccc(O)c(OC)c3)n12	4.95 µM	> 100 µM	5.33 µM	> 100 µM	7.67 µM	> 100 µM	95.5 µM	> 100 µM	8.29 µM	> 100 µM	11.1 µM	> 100 µM	6.51 µM	> 100 µM	> 100 µM	> 100 µM	1.42 µM	5.59 µM	8 µM	> 100 µM
ICCC(c1ccccc1)(c1ccccc1)c1ccccc1	2.55 µM	13.5 µM	1.72 µM	3.88 µM	4.16 µM	19.2 µM	13.4 µM	31 µM	2.46 µM	5.74 µM	1.7 µM	13 µM	–	–	8.41 µM	27.6 µM	2.14 µM	6.72 µM	2.02 µM	5.07 µM
C[C@]12CCC3c4ccc(O)cc4CCC3C1Cc1ccc(O)cc12 (stereo partly specified)	3.52 µM	13.2 µM	1.08 µM	3.29 µM	6.53 µM	21.3 µM	–	–	5.25 µM	17.1 µM	6.35 µM	31.2 µM	4.88 µM	18.2 µM	5.44 µM	18.4 µM	2.44 µM	11.1 µM	12.8 µM	34.2 µM
CC1=CC2=C(C(N)=O)C(=O)OC2(C)C(c2ccccc2)C1 (stereo unspecified)	–	> 100 µM	–	> 100 µM	–	> 100 µM	–	–	–	> 100 µM	–	> 100 µM	–	> 100 µM	–	–	–	> 100 µM	–	> 100 µM
